Assays:
Format in all cases: in vivo
Digitaria [1] = experiment: Pre-emergence test; conditions: greenhouse, scored after three weeks
Protocol: (§1) Pre-emergence Test Solvent: 5 parts by weight of acetone Emulsifier: 1 part by weight of alkylaryl polyglycol ether To produce a suitable preparation of active compound, 1 part by weight of active compound is mixed with the stated amount of solvent, the stated amount of emulsifier is added and the concentrate is diluted with water to the desired concentration. Seeds of the test plants are sown in normal soil. After about 24 hours, the soil is watered with the preparation of active compound. The amount of water per unit area is advantageously kept constant. The concentration of active compound in the preparation is immaterial, only the application rate of active compound per unit area matters. After three weeks, the degree of damage to the plants is scored visually in % damage in comparison to the development of the untreated control. The figures denote: 0%=no effect (like untreated control) 100%=total destruction

Matricaria = experiment: Pre-emergence test; conditions: greenhouse, 500 g of ai./ha, scored after three weeks
Protocol: as §1

Abutilon [2] = experiment: Pre-emergence test; conditions: greenhouse, scored after three weeks
Protocol: as §1

Maize [3] = experiment: Pre-emergence test; conditions: greenhouse, scored after three weeks
Protocol: as §1

Datura [4] = experiment: Pre-emergence test; conditions: greenhouse, 500 g of ai./ha, scored after three weeks
Protocol: as §1

Echinochloa = experiment: Pre-emergence test; conditions: greenhouse, scored after three weeks
Protocol: as §1

Alopecurus [5] = experiment: Pre-emergence test; conditions: greenhouse, scored after three weeks
Protocol: as §1

Amaranthus [6] = experiment: Pre-emergence test; conditions: greenhouse, 1000 g of ai./ha, scored after three weeks
Protocol: as §1

Sinapis [7] = experiment: Pre-emergence test; conditions: greenhouse, 1000 g of ai./ha, scored after three weeks
Protocol: as §1

Setaria [8] = experiment: Pre-emergence test; conditions: greenhouse, scored after three weeks
Protocol: as §1

Galium [9] = experiment: Pre-emergence test; conditions: greenhouse, 1000 g of ai./ha, scored after three weeks
Protocol: as §1

Wheat [10] = experiment: Pre-emergence test; conditions: greenhouse, scored after three weeks
Protocol: as §1

Solanum = experiment: Pre-emergence test; conditions: greenhouse, scored after three weeks
Protocol: as §1

Veronica = experiment: Pre-emergence test; conditions: greenhouse, scored after three weeks
Protocol: as §1

Cotton = experiment: Pre-emergence test; conditions: greenhouse, scored after three weeks
Protocol: as §1

Polygonum [11] = experiment: Pre-emergence test; conditions: greenhouse, 500 g of ai./ha, scored after three weeks
Protocol: as §1

Digitaria [12] = experiment: Post-emergence test; conditions: greenhouse, 125 g of ai./ha, scored after three weeks
Procedure, shortened: (§2)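 Plants 5-15 cm tall sprayed post-emergence with compound formulated in acetone/alkylaryl polyglycol ether emulsifier, diluted in water, applied at desired rates in 1000 l water/ha. Damage scored visually after three weeks as % versus untreated control (0% no effect, 100% total destruction).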

Wheat [13] = experiment: Post-emergence test; conditions: greenhouse, scored after three weeks
Procedure, shortened: as §2

Maize [14] = experiment: Post-emergence test; conditions: greenhouse, scored after three weeks
Procedure, shortened: as §2

Datura [15] = experiment: Post-emergence test; conditions: greenhouse, 125 g of ai./ha, scored after three weeks
Procedure, shortened: as §2

Chenopodium = experiment: Post-emergence test; conditions: greenhouse, scored after three weeks
Procedure, shortened: as §2

Polygonum [16] = experiment: Post-emergence test; conditions: greenhouse, 125 g of ai./ha, scored after three weeks
Procedure, shortened: as §2

Viola = experiment: Post-emergence test; conditions: greenhouse, scored after three weeks
Procedure, shortened: as §2

Setaria [17] = experiment: Post-emergence test; conditions: greenhouse, scored after three weeks
Procedure, shortened: as §2

Amaranthus [18] = experiment: Post-emergence test; conditions: greenhouse, scored after three weeks; for pest or weed control at 1000 g/ha: Amaranthus, 504 h, read-out: % damage, Amaranthus
Procedure, shortened: as §2

Abutilon [19] = experiment: Post-emergence test; conditions: greenhouse, 1000 g of ai./ha, scored after three weeks
Procedure, shortened: as §2

Sinapis [20] = experiment: Post-emergence test; conditions: greenhouse, 1000 g of ai./ha, scored after three weeks
Procedure, shortened: as §2

Xanthium = experiment: Post-emergence test; conditions: greenhouse, 1000 g of ai./ha, scored after three weeks
Procedure, shortened: as §2

Avena fatua = experiment: Post-emergence test; conditions: greenhouse, 1000 g of ai./ha, scored after three weeks
Procedure, shortened: as §2

Galium [21] = experiment: Post-emergence test; conditions: greenhouse, 1000 g of ai./ha, scored after three weeks
Procedure, shortened: as §2

Stellaria = experiment: Post-emergence test; conditions: greenhouse, 250 g of ai./ha, scored after three weeks
Procedure, shortened: as §2

Alopecurus [22] = experiment: Post-emergence test; conditions: greenhouse, 1000 g of ai./ha, scored after three weeks
Procedure, shortened: as §2

[23] = Setaria, 504 h, 1000 g of ai./ha, read-out: % damage, Setaria

With `CC(F)c1nc(N)nc(NC(C)c2ccc(Cl)cc2)n1` (stereo not shown) [drawing 93] the “% damage, Digitaria” value (Digitaria [1]; 500 g of ai./ha) was 100%, the “% damage, Matricaria” value (Matricaria) was 100% and the “% damage, Abutilon” value (Abutilon [2]; 500 g of ai./ha) was 100%. The “% damage, Maize” value (Maize [3]; 500 g of ai./ha) was 0%, the “% damage, Datura” value (Datura [4]) was 100% and the “% damage, Echinochloa” value (Echinochloa; 500 g of ai./ha) was 100%. For the same compound, the “% damage, Alopecurus” value (Alopecurus [5]; 500 g of ai./ha) was 100%.

With `CC(F)c1nc(N)nc(NC(C)c2ccc(Cl)cc2)n1` (stereo not shown) [drawing 94] the “% damage, Amaranthus” value (Amaranthus [6]) was 100%, the “% damage, Abutilon” value (Abutilon [2]; 1000 g of ai./ha) was 100% and the “% damage, Sinapis” value (Sinapis [7]) was 100%. The “% damage, Maize” value (Maize [3]; 1000 g of ai./ha) was 0%.

With `CC(Nc1nc(N)nc(C(C)(C)F)n1)c1ccc(Cl)cc1` (stereo not shown) [drawing 95] the “% damage, Amaranthus” value (Amaranthus [6]) was 90%, the “% damage, Abutilon” value (Abutilon [2]; 1000 g of ai./ha) was 80% and the “% damage, Sinapis” value (Sinapis [7]) was 100%. For the same compound, the “% damage, Maize” value (Maize [3]; 1000 g of ai./ha) was 0%.

In the case of `CC(Nc1nc(N)nc(C(C)(C)F)n1)c1ccc(Cl)cc1` (stereo not shown) [drawing 96], the “% damage, Amaranthus” value (Amaranthus [6]) is reported as 100%, the “% damage, Abutilon” value (Abutilon [2]; 1000 g of ai./ha) is reported as 100% and the “% damage, Sinapis” value (Sinapis [7]) is reported as 100%. The “% damage, Maize” value (Maize [3]; 1000 g of ai./ha) was 20%, the “% damage, Alopecurus” value (Alopecurus [5]; 1000 g of ai./ha) was 100% and the “% damage, Setaria” value (Setaria [8]; 1000 g of ai./ha) was 100%. For the same compound, the “% damage, Galium” value (Galium [9]) was 100%.

In the case of `CC(Nc1nc(N)nc(C(Cl)Cl)n1)c1ccc(Cl)cc1` (stereo not shown) [drawing 98], the “% damage, Digitaria” value (Digitaria [1]; 500 g of ai./ha) is reported as 95%, the “% damage, Wheat” value (Wheat [10]; 500 g of ai./ha) is reported as 0% and the “% damage, Solanum” value (Solanum; 500 g of ai./ha) is reported as 100%. The “% damage, Veronica” value (Veronica; 500 g of ai./ha) was 100%, the “% damage, Cotton” value (Cotton; 500 g of ai./ha) was 0% and the “% damage, Echinochloa” value (Echinochloa; 500 g of ai./ha) was 100%. For the same compound, the “% damage, Polygonum” value (Polygonum [11]) was 100%.

For `CC(Nc1nc(N)nc(C(C)(Cl)Cl)n1)c1ccc(Cl)cc1` (stereo not shown) [drawing 99], the “% damage, Amaranthus” value (Amaranthus [6]) was 100%, the “% damage, Digitaria” value (Digitaria [1]; 1000 g of ai./ha) was 100% and the “% damage, Wheat” value (Wheat [10]; 1000 g of ai./ha) was 0%. The “% damage, Solanum” value (Solanum; 1000 g of ai./ha) was 100%, the “% damage, Veronica” value (Veronica; 1000 g of ai./ha) was 100% and the “% damage, Cotton” value (Cotton; 1000 g of ai./ha) was 0%. The “% damage, Echinochloa” value (Echinochloa; 1000 g of ai./ha) was 95%.

For `CC(Cl)c1nc(N)nc(NC(C)c2ccc(Cl)cc2)n1` (stereo not shown) [drawing 100], the “% damage, Wheat” value (Wheat [10]; 500 g of ai./ha) was 0%, the “% damage, Solanum” value (Solanum; 500 g of ai./ha) was 100% and the “% damage, Veronica” value (Veronica; 500 g of ai./ha) was 100%. For the same compound, the “% damage, Cotton” value (Cotton; 500 g of ai./ha) was 0%, the “% damage, Echinochloa” value (Echinochloa; 500 g of ai./ha) was 100% and the “% damage, Polygonum” value (Polygonum [11]) was 100%. The “% damage, Setaria” value (Setaria [8]; 500 g of ai./ha) was 95%.

For `CC(F)c1nc(N)nc(NC(C)c2ccc(Cl)cc2)n1` (stereo not shown) [drawing 104], the “% damage, Digitaria” value (Digitaria [12]) was 80%, the plant injury at 125 g/ha (Wheat [13]; Triticum aestivum, 504 h, 125 g of ai./ha, read-out: % damage, Wheat) was 0% and the “% damage, Maize” value (Maize [14]; 125 g of ai./ha) was 10%. The “% damage, Datura” value (Datura [15]) was 100%, the “% damage, Chenopodium” value (Chenopodium; 125 g of ai./ha) was 100% and the “% damage, Polygonum” value (Polygonum [16]) was 100%. The “% damage, Viola” value (Viola; 125 g of ai./ha) was 100% and the “% damage, Setaria” value (Setaria [17]; 125 g of ai./ha) was 90%.

For `CC(F)c1nc(N)nc(NC(C)c2ccc(Cl)cc2)n1` (stereo not shown) [drawing 105], the “% damage, Maize” value (Maize [14]; 125 g of ai./ha) was 20%, the “% damage, Datura” value (Datura [15]) was 100% and the pest or weed control at 125 g/ha (Chenopodium; Chenopodium, 504 h, 125 g of ai./ha, read-out: % damage, Chenopodium) was 100%. The pest or weed control at 125 g/ha (Polygonum [16]; Polygonum, 504 h, read-out: % damage, Polygonum) was 100%, the pest or weed control at 125 g/ha (Viola; 504 h, 125 g of ai./ha, read-out: % damage, Viola) was 100% and the pest or weed control at 125 g/ha (Setaria [17]; Setaria, 504 h, 125 g of ai./ha, read-out: % damage, Setaria) was 80%.

With `CC(Nc1nc(N)nc(C(F)(F)F)n1)c1ccc(Cl)cc1` (stereo not shown) [drawing 111] the “% damage, Amaranthus” value (Amaranthus [18]; 1000 g of ai./ha) was 100%, the “% damage, Abutilon” value (Abutilon [19]) was 100% and the “% damage, Sinapis” value (Sinapis [20]) was 100%. For the same compound, the “% damage, Xanthium” value (Xanthium) was 100%, the “% damage, Avena fatua” value (Avena fatua) was 70% and the “% damage, Setaria” value (Setaria [17]; 1000 g of ai./ha) was 100%. For the same compound, the “% damage, Galium” value (Galium [21]) was 100%.

`CC(Nc1nc(N)nc(C(C)(C)F)n1)c1ccc(Cl)cc1` (stereo not shown) [drawing 112] was tested, and the “% damage, Amaranthus” value (Amaranthus [18]; 1000 g of ai./ha) was 100%, the “% damage, Abutilon” value (Abutilon [19]) was 100% and the “% damage, Sinapis” value (Sinapis [20]) was 100%. For the same compound, the “% damage, Xanthium” value (Xanthium) was 100%, the “% damage, Avena fatua” value (Avena fatua) was 100% and the “% damage, Setaria” value (Setaria [17]; 1000 g of ai./ha) was 100%. The “% damage, Galium” value (Galium [21]) was 100%.

For `CCC(Nc1nc(N)nc(C(F)(F)F)n1)c1ccc(Cl)cc1` (stereo not shown) [drawing 142], the “% damage, Amaranthus” value (Amaranthus [18]; 250 g of ai./ha) was 100%, the “% damage, Wheat” value (Wheat [13]; 250 g of ai./ha) was 10% and the “% damage, Stellaria” value (Stellaria) was 100%. For the same compound, the “% damage, Chenopodium” value (Chenopodium; 250 g of ai./ha) was 100%, the “% damage, Viola” value (Viola; 250 g of ai./ha) was 100% and the “% damage, Setaria” value (Setaria [17]; 250 g of ai./ha) was 100%.

With `CCC(Nc1nc(NC(C)=O)nc(C(F)(F)F)n1)c1ccc(Cl)cc1` (stereo not shown) [drawing 144] the pest or weed control at 1000 g/ha (Amaranthus [18]; 1000 g of ai./ha) was 100%, the “% damage, Abutilon” value (Abutilon [19]) was 100% and the “% damage, Xanthium” value (Xanthium) was 90%. For the same compound, the “% damage, Maize” value (Maize [14]; 1000 g of ai./ha) was 10% and the pest or weed control at 1000 g/ha (Setaria [17]; [23]) was 100%.

`COc1ccc(C(C)Nc2nc(NC(C)=O)nc(C(F)(F)F)n2)cc1` (stereo not shown) [drawing 149] was tested, and the pest or weed control at 1000 g/ha (Amaranthus [18]; 1000 g of ai./ha) was 100%, the “% damage, Abutilon” value (Abutilon [19]) was 100% and the “% damage, Xanthium” value (Xanthium) was 100%. For the same compound, the “% damage, Alopecurus” value (Alopecurus [22]) was 100%, the pest or weed control at 1000 g/ha (Setaria [17]; [23]) was 100% and the “% damage, Galium” value (Galium [21]) was 100%.

From patent publication US6440903B1, “Substituted 2,4-diamino-1,3,5-triazines as herbicides” (Bayer Aktiengesellschaft, priority 1996, dated 2002)
